Test results from publication PMC10150366, “Discovery of an In Vivo Chemical Probe for BCL6 Inhibition by Optimization of Tricyclic Quinolinones” (Journal of Medicinal Chemistry, 2023).
“And” between values parts separate entries of the source, which are not always exact repeats. Equal values may be shown once. Read-outs that look alike come from different tables or passages of the source.

Legend:
Format in all cases: cell-based
OPRM1 = OPRM1 (Homo sapiens, UniProt P35372); assay: SAFETYscan cAMP OPRM1 Antagonist
Sequence of OPRM1 (P35372 whole entry): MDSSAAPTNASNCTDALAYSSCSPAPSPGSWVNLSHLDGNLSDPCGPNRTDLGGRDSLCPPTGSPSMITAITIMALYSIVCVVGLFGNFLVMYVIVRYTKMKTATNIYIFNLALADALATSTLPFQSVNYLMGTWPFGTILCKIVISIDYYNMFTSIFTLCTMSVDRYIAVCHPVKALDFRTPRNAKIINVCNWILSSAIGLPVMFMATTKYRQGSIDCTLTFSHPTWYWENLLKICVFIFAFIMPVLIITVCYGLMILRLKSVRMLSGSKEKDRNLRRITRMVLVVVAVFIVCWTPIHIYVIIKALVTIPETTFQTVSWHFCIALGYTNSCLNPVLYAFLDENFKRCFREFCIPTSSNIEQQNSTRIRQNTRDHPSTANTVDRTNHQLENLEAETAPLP
Excerpt: (§1) Supplement jm3c00155_si_002.xlsx, sheet "SAFETYScan" | column: RC50 (uM); Hill; Max Response

DRD2S = DRD2S (Homo sapiens, UniProt P14416); assay: SAFETYscan cAMP DRD2S Agonist
Sequence of DRD2S (P14416 1-414 isoform P14416-2): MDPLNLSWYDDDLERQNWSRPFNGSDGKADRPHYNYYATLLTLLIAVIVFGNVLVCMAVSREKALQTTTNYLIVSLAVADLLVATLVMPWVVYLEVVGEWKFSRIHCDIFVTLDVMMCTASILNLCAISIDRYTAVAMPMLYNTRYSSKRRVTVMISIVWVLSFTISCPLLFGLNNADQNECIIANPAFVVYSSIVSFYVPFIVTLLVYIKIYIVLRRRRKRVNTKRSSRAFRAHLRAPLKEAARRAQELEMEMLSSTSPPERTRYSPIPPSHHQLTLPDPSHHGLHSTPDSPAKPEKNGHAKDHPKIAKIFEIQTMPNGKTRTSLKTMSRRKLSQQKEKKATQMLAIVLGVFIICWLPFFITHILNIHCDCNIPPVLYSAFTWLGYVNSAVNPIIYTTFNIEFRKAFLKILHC
Excerpt: as §1

ADORA2A [1] = target: T1, ADORA2A (Homo sapiens, UniProt P29274); assay: SAFETYscan Calcium Flux ADORA2A Agonist
T1 sequence (P29274 whole entry): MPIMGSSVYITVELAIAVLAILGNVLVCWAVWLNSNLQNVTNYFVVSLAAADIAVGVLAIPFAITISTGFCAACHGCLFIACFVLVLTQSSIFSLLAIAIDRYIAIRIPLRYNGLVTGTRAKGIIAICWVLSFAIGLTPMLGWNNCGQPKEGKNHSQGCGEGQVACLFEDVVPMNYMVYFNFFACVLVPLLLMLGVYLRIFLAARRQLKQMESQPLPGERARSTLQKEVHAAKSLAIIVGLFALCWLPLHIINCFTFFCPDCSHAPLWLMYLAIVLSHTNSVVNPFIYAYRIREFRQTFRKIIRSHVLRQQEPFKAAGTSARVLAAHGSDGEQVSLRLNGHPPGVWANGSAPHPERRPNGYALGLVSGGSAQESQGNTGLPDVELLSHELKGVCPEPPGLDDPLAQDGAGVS
Excerpt: (§2) Supplement jm3c00155_si_002.xlsx, sheet "SAFETYScan" | column: RC50 (uM); Max Response

[2] = target: T2, BCL6-SMRT (NCOR2) corepressor protein-protein interaction (Homo sapiens, UniProt P41182); assay: NanoBRET cellular assay (HEK293T)
T2 construct: DNA encoding full length BCL6 and SMRT; expressed in transfected cells; host or cells: HEK293T
Procedure: Test compounds in DMSO or DMSO alone
concentration in 0.7% v/v DMSO final.
(also called NCOR2) corepressor protein-protein interaction. DNA encoding full length BCL6 and SMRT
fusion proteins BCL6-nanoLuc and SMRT-HaloTag, respectively. HEK293T cells were plated […] in T75
At the time of assay, compounds
dispensing (Labcyte Inc.). Frozen transfected HEK293T cells were thawed, centrifuged and freezing
(§3) DMSO final concentration.
(§4) After a short centrifugation the
(1st emission filter) / 450-80 nm (2nd emission filter). The % inhibition at each test concentration was
sigmoidal four-parameter logistic fit equation. […]

HTR1B [3] = target: T3, HTR1B (Homo sapiens, UniProt P28222); assay: SAFETYscan cAMP HTR1B Antagonist
T3 sequence (P28222 whole entry): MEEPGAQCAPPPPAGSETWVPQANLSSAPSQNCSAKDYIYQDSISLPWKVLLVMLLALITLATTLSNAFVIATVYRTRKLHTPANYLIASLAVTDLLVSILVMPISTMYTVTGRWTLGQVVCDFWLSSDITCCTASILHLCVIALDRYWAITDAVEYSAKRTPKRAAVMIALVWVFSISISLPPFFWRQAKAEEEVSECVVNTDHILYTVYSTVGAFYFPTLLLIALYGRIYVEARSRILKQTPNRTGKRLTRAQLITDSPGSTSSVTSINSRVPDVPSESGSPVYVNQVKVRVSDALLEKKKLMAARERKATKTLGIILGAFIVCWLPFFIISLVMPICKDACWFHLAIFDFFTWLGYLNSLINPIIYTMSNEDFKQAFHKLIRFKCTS
Excerpt: as §2

SERT = SERT (Homo sapiens, UniProt P31645); assay: SAFETYscan Transporter SERT Blocker
Sequence of SERT (P31645 whole entry, species assumed): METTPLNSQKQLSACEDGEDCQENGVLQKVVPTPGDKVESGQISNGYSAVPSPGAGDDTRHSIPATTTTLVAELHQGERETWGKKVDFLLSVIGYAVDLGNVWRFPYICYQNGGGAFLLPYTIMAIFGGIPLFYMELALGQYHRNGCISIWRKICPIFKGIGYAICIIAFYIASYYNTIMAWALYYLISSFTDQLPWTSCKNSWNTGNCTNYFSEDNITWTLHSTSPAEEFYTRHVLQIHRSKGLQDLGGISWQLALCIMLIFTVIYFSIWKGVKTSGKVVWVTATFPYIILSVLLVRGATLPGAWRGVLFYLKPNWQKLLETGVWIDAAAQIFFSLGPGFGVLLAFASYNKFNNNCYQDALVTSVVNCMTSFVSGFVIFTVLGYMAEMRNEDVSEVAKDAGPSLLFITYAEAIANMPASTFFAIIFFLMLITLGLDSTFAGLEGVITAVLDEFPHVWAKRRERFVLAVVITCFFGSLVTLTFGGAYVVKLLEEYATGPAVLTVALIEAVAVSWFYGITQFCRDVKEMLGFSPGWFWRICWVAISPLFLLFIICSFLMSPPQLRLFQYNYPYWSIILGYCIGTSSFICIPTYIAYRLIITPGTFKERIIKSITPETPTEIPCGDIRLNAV
Excerpt: as §2

DRD1 = DRD1 (Homo sapiens, UniProt P21728); assay: SAFETYscan cAMP DRD1 Antagonist
Sequence of DRD1 (P21728 whole entry): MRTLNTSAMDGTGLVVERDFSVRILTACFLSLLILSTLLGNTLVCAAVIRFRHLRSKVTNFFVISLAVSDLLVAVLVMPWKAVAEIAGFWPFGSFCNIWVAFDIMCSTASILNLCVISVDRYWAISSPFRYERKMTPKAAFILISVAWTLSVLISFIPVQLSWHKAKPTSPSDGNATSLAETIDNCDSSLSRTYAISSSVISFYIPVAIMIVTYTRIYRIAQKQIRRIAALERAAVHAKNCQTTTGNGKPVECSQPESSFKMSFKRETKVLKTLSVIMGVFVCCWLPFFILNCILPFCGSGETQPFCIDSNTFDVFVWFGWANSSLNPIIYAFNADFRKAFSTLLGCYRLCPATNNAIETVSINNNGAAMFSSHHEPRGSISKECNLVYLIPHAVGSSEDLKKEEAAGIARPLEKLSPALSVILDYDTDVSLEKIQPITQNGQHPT
Excerpt: as §1

ADRA2A = target: T4, ADRA2A (Homo sapiens, UniProt P08913); assay: SAFETYscan cAMP ADRA2A Antagonist
T4 sequence (P08913 1-465): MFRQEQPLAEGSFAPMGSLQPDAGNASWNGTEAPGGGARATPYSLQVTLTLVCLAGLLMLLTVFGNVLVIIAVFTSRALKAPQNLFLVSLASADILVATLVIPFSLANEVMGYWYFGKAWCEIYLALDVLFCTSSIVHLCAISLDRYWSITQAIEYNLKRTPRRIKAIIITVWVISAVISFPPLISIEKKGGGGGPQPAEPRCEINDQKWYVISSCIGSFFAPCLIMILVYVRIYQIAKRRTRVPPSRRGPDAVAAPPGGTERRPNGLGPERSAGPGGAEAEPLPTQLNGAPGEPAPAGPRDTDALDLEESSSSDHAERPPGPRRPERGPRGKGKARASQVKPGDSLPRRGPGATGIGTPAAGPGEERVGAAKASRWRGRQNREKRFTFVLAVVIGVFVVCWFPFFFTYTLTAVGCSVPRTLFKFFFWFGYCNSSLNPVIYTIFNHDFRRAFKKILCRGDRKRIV
Excerpt: as §2

OPRK1 = OPRK1 (Homo sapiens, UniProt P41145); assay: SAFETYscan cAMP OPRK1 Agonist
Sequence of OPRK1 (P41145 whole entry): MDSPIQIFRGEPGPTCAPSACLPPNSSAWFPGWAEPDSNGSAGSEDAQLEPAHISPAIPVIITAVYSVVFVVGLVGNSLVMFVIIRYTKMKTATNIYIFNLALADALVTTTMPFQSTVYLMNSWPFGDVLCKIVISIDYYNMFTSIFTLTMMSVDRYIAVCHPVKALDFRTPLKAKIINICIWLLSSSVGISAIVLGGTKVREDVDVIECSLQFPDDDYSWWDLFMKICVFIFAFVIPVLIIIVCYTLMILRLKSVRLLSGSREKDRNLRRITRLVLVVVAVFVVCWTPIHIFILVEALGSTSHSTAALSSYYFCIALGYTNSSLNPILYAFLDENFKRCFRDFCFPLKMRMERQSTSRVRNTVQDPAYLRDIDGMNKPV
Excerpt: as §2

HRH1 = HRH1 (Homo sapiens, UniProt P35367); assay: SAFETYscan Calcium Flux HRH1 Antagonist
Sequence of HRH1 (P35367 whole entry): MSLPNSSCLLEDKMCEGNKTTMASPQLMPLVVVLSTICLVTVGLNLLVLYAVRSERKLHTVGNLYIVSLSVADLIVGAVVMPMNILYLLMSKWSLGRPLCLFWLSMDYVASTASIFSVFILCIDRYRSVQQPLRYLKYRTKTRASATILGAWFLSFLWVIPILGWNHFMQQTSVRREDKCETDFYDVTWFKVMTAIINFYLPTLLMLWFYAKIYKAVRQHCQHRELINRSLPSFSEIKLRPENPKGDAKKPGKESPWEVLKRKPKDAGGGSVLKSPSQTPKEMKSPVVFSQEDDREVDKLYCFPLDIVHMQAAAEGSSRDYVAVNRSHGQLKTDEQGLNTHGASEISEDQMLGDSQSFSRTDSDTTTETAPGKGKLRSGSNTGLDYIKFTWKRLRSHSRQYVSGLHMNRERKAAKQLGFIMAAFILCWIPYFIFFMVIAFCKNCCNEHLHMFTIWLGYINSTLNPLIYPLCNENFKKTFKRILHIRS
Excerpt: as §2

HTR1B [4] = target: T3, HTR1B; assay: SAFETYscan cAMP HTR1B Agonist
Excerpt: as §1

HTR1A = target: T5, HTR1A (Homo sapiens, UniProt P08908); assay: SAFETYscan cAMP HTR1A Agonist
T5 sequence (P08908 1-422): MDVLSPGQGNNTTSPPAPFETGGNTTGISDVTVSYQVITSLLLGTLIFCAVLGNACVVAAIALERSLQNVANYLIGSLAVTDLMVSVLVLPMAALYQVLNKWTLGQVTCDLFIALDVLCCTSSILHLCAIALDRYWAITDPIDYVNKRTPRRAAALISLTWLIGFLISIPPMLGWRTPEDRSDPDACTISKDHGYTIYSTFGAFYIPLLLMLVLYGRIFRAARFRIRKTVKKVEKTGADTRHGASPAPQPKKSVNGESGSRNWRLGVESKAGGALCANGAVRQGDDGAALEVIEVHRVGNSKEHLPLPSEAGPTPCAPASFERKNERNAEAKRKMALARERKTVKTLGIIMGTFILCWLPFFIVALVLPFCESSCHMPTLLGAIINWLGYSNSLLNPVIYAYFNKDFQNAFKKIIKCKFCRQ
Excerpt: as §2

ADORA2A [5] = target: T1, ADORA2A; assay: SAFETYscan Calcium Flux ADORA2A Antagonist
Excerpt: as §2

SU-DHL-4 = assay: 14-day cell proliferation assay, SU-DHL-4; details: Homo sapiens, 14-day assay
Excerpt: as §3, §4
(1st emission filter) / 450-80 nm (2nd emission filter). The % inhibition at each test concentration was […]
sigmoidal four-parameter logistic fit equation.
2.3 Cell proliferation assay
Aldrich) supplemented with 10% FBS (Gibco). Compounds were initially dispensed into 96-well U-bottom […]
transferred onto the cells.
Assay plates containing cells
(Beckman Coulter). The volume of medium containing 2500 cells in the control well was calculated and this volume of cells was transferred from every well of the assay plates to the corresponding well of the fresh plates containing compound. After 14 days, CellTiter Glo reagent (Promega) was added to the medium in each well of the assay plate at a ratio of 1:2, mixed on a plate shaker, then incubated at room temperature for 10 minutes. Luminescence was measured using an Envision plate reader (Perkin Elmer) and the relative luminescence at each compound concentration, compared to DMSO alone, was calculated. GI50 were determined using a 4-parameter curve fit in Dotmatics (Bishops Stortford, UK).

KvLQT1/minK = KvLQT1/minK (Homo sapiens, UniProt P51787); assay: SAFETYscan Ion Channel KvLQT1/minK Opener
Excerpt: as §2

Cn1c(=O)c2c(c3cc(Nc4ccnc(F)c4Cl)ccc31)N[C@@H](C1CC1)C(F)(F)CO2 [compound 17, (S)-10-((3-chloro-2-fluoropyridin-4-yl)amino)-2-cyclopropyl-3,3-difluoro-7-methyl-1,2,3,4-tetrahydro-[1,4]oxazepino[2,3-c]quinolin-6(7H)-one]
IC50 (OPRM1): 4360 nM
Hill (OPRM1; OPRM1, cAMP, Antagonist): 0.72
Emax (OPRM1; OPRM1, cAMP, Antagonist, read-out: Max Response): 56.3%
EC50 (DRD2S): 3500 nM
Hill (DRD2S; DRD2S, cAMP, Agonist): 1.25
Emax (DRD2S; DRD2S, cAMP, Agonist, read-out: Max Response): 72.1%
Emax (ADORA2A [1]; read-out: Max Response): 0%
EC50 (ADORA2A [1]; read-out: RC50 (EC50)): > 10000 nM
IC90 ([2]; HEK-293T, Table S2, read-out: BCL6 NanoBRET IC90 individual replicates): 140 nM
calculated free (unbound) cellular IC90 ([2]; HEK-293T, calculated free cellular IC90 from NanoBRET assay): 48 nM
IC90 ([2]; HEK-293T, geometric mean of at least three replicates, read-out: NanoBRET IC90): 140 nM
BCL6 NanoBRET pIC50 mean ([2]; Table S2): 7.6643
IC50 ([2]; geometric mean of at least three replicates, read-out: NanoBRET IC50): 22 nM
IC50 ([2]; single replicates, Table S2, listed as CCT374705, 17, read-out: BCL6 NanoBRET IC50 individual replicates): 21.8 nM and 22.2 nM
IC50 ([2]; single replicates, Table S2, read-out: BCL6 NanoBRET IC50 individual replicates): 25.1 nM and 17.3 nM and 24.3 nM and 18.4 nM and 20.9 nM and 24.2 nM and 77.1 nM and 15.6 nM and 11.1 nM and 15.4 nM and 40.7 nM and 25.3 nM and 23.2 nM and 13 nM and 32.6 nM and 29.5 nM and 10.1 nM and 12.1 nM and 44.2 nM and 19.7 nM and 14.6 nM and 25.2 nM
IC50 ([2]; supplement, read-out: BCL6 NanoBRET IC50 Geometric Mean): 21.7 nM
IC50 (HTR1B [3]): > 10000 nM
Emax (HTR1B [3]; HTR1B, cAMP, Antagonist, read-out: Max Response): 0%
IC50 (SERT): > 10000 nM
Emax (SERT; SERT, Transporter, Blocker, read-out: Max Response): 0%
IC50 (DRD1): 2580 nM
Hill (DRD1; DRD1, cAMP, Antagonist): 1.27
Emax (DRD1; DRD1, cAMP, Antagonist, read-out: Max Response): 82.7%
IC50 (ADRA2A): > 10000 nM
Emax (ADRA2A; ADRA2A, cAMP, Antagonist, read-out: Max Response): 0%
EC50 (OPRK1): > 10000 nM
Emax (OPRK1; OPRK1, cAMP, Agonist, read-out: Max Response): 21.1%
Emax (HRH1; read-out: Max Response): 14.2%
IC50 (HRH1; read-out: RC50 (IC50)): > 10000 nM
EC50 (HTR1B [4]): 9130 nM
Hill (HTR1B [4]; HTR1B, cAMP, Agonist): 0.76
Emax (HTR1B [4]; HTR1B, cAMP, Agonist, read-out: Max Response): 50.3%
EC50 (HTR1A): > 10000 nM
Emax (HTR1A; HTR1A, cAMP, Agonist, read-out: Max Response): 45.6%
Emax (ADORA2A [5]; read-out: Max Response): 10.4%
IC50 (ADORA2A [5]; read-out: RC50 (IC50)): > 10000 nM
GI50 (SU-DHL-4): 1380 nM
Emax (KvLQT1/minK; read-out: Max Response): 1.07%
EC50 (KvLQT1/minK; read-out: RC50 (EC50)): > 10000 nM
